Assay type in all cases: biochemical
Test [1] addresses B-Raf(V599E) kinase (Homo sapiens, UniProt P15056, V600E). Description: B-Raf(V599E) kinase assay B1. The note with it: for inhibition at 1 µM: read-out: Results, % @ concentration μM; for IC50: Method B1, construct 1. As to the method: The test compounds were incubated with the reaction mixture at 30° C. for 2 h. […] The reaction rate was calculated using the 1.5 h to 2.5 h time frame. […] IC50 values were calculated from a series of percent inhibition values determined at a range of inhibitor concentrations using software routines as implemented in the GraphPad Prism software package.

Test [2] concerns the target phosphorylated p-38-alpha kinase (Homo sapiens, UniProt Q16539). The test can be described thus: P-38 alpha kinase assay P1. The note with it: Method P1; for IC50: 2 h pre-incubation before ATP.
The target of test [3] is T1, phospho p-38 alpha kinase (Homo sapiens, UniProt Q16539).
T1 construct: purchased Panvera
The test can be described thus: P-38 alpha kinase assay (spectrophotometric, pyruvate kinase/lactate dehydrogenase coupled).

The mark [4] stands for this setting: Table 5, assay not named, read-out: uM.

The structures appear in SMILES notation. Where two headings read alike, the source gives them in different places.

Chain of phosphorylated p-38-alpha kinase (Q16539 1-360 isoform Q16539-2): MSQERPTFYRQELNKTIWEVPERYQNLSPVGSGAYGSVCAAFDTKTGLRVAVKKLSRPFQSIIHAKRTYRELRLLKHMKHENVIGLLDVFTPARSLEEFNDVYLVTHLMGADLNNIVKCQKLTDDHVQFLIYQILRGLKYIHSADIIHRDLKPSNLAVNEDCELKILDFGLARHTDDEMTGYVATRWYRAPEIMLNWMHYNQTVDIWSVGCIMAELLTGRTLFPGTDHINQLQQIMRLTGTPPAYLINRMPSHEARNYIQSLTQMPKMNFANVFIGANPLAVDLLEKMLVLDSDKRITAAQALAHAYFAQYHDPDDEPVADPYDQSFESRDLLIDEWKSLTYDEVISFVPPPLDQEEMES
Chain of B-Raf(V599E) kinase (P15056 with tags, fused parts or gaps V600E): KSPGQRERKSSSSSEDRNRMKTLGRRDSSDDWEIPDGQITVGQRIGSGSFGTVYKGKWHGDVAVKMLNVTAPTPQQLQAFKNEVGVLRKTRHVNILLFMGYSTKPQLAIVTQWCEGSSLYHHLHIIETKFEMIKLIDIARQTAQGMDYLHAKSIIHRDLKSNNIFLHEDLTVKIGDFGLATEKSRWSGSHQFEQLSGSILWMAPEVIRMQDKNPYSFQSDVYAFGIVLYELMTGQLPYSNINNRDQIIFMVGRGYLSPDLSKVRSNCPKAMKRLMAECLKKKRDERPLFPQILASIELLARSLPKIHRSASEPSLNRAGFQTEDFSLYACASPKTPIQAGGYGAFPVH
T1 sequence (Q16539 whole entry): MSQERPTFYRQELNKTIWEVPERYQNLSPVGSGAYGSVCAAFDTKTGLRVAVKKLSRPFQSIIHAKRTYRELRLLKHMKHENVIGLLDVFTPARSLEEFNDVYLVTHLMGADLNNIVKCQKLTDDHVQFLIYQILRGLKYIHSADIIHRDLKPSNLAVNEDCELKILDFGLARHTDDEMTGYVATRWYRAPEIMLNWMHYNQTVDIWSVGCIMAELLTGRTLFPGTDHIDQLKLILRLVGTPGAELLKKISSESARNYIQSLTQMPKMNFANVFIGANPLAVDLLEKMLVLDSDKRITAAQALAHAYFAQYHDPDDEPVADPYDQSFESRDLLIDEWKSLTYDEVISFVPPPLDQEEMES

Consider `O=C(O)Cc1ccc(-n2nc(-c3ccsc3)cc2NC(=O)Nc2cccc(Cl)c2Cl)cc1` [Example 444, 2-(4-(5-(3-(2,3-dichlorophenyl)ureido)-3-(thiophen-3-yl)-1H-pyrazol-1-yl)phenyl)acetic acid], for which, in test [1], the inhibition at 1 µM is 42%. The IC50 in test [2] amounted to 0.006 µM; in test [3] (setting [4]), 5 µM.
Compound `O=C(O)Cc1cccc(-n2nc(-c3cccc(F)c3)cc2NC(=O)Nc2cccc(Cl)c2Cl)c1` [Example 432, 2-(3-(5-(3-(2,3-dichlorophenyl)ureido)-3-(3-fluorophenyl)-1H-pyrazol-1-yl)phenyl)acetic acid] yielded an IC50 in test [2] of 0.011 µM. Besides, the “% @ concentration, uM” value in test [3] (Table 5, @ 1 uM) is given as 9%; in test [3] (Table 5, @ 10 uM), 24%.
As for `NC(=O)Cc1ccc(-n2nc(-c3cccs3)cc2NC(=O)Nc2cccc(Cl)c2Cl)cc1` [Example 468, 1-(1-(4-(2-amino-2-oxoethyl)phenyl)-3-(thiophen-2-yl)-1H-pyrazol-5-yl)-3-(2,3-dichlorophenyl)urea], the values for the IC50 in test [1], in test [2] and in test [3] (setting [4]) were 1.2 µM, 0.009 µM and 0.0086 µM, respectively.
On to `CC(C)(C)c1cc(NC(=O)Nc2cccc(-c3cnccn3)c2)n(-c2cccc(CC(N)=O)c2)n1` [Example 509, 1-(1-(3-(2-amino-2-oxoethyl)phenyl)-3-tert-butyl-1H-pyrazol-5-yl)-3-(3-(pyrazin-2-yl)phenyl)urea], for which the IC50 in test [1] is 0.28 µM; in test [3] (setting [4]), 0.5 µM. Moreover, the “Results, % @ concentration μM” value in test [2] (@ 1.0 μM) came out at 57% @1.0.
On to `O=C(O)Cc1ccc(-n2nc(-c3cccc(F)c3)cc2NC(=O)Nc2cccc(Cl)c2Cl)cc1` [Example 439, 2-(4-(5-(3-(2,3-dichlorophenyl)ureido)-3-(3-fluorophenyl)-1H-pyrazol-1-yl)phenyl)acetic acid], for which the IC50 in test [2] was 0.013 µM.
The same measure, in the same setting: then `O=C(Nc1cccc(Cl)c1Cl)Nc1cc(-c2ccccc2F)nn1-c1ccc(CC(=O)N2CC[C@H](O)C2)cc1` [Example 479, 1-(2,3-dichlorophenyl)-3-(3-(2-fluorophenyl)-1-(4-(2-((S)-3-hydroxypyrrolidin-1-yl)-2-oxoethyl)phenyl)-1H-pyrazol-5-yl)urea], with 0.037 µM.
`O=C(Cc1ccc(-n2nc(-c3cccs3)cc2NC(=O)Nc2cccc(Cl)c2Cl)cc1)NCC(O)CO` (stereo not drawn) [Example 472, 1-(2,3-dichlorophenyl)-3-(1-(4-(2-(2,3-dihydroxypropylamino)-2-oxoethyl)phenyl)-3-(thiophen-2-yl)-1H-pyrazol-5-yl)urea]: the IC50 amounted to 0.01 µM in test [2] and 0.05 µM in test [3] (setting [4]).
In the same order, the values of `O=C(Cc1ccc(-n2nc(-c3cccs3)cc2NC(=O)Nc2cccc(Cl)c2Cl)cc1)NC(CO)CO` [Example 474, 1-(2,3-dichlorophenyl)-3-(1-(4-(2-(1,3-dihydroxypropan-2-ylamino)-2-oxoethyl)phenyl)-3-(thiophen-2-yl)-1H-pyrazol-5-yl)urea] are 0.013 µM and 0.38 µM.
Regarding `O=C(Cc1cccc(-n2nc(-c3ccsc3)cc2NC(=O)Nc2cccc(Cl)c2Cl)c1)NCCO` [Example 458, 1-(2,3-dichlorophenyl)-3-(1-(3-(2-(2-hydroxyethylamino)-2-oxoethyl)phenyl)-3-(thiophen-3-yl)-1H-pyrazol-5-yl)urea], in test [1], the inhibition at 1 µM was 28%. Moreover, the IC50 in test [2] was found to be 0.007 µM; in test [3] (setting [4]) it was 1 µM.
In turn, `O=C(O)Cc1cccc(-n2nc(-c3cccs3)cc2NC(=O)Nc2cccc(Cl)c2Cl)c1` [Example 435, 2-(3-(5-(3-(2,3-dichlorophenyl)ureido)-3-(thiophen-2-yl)-1H-pyrazol-1-yl)phenyl)acetic acid] gave an IC50 in test [1] of 0.16 µM.
Regarding `CC(C)(C)c1cc(NC(=O)Nc2cccc(Cl)c2Cl)n(-c2ccc(C(=O)O)cc2)n1` [Example 365, 4{-3-t-butyl-5-[3-(2,3-dichlorophenyl)ureido]-1H-pyrazol-1-yl}benzoic acid], in test [3] (setting [4]), the IC50 was found to be 0.007 µM.
Consider `CCOC(=O)c1cccc(-n2nc(C(F)(F)F)cc2NC(=O)Nc2cccc3ccccc23)c1` [Example 336], for which the “% @ concentration, uM” value in test [3] (Table 5, @ 10 uM) was determined as 27% @ 10.
As for `CC(C)(C)c1cc(NC(=O)Nc2cccc(Cl)c2Cl)n(-c2ccc(C(C)(C)O)cc2)n1` [Example 364, 1-{3-t-butyl-1-[4-(2-hydroxypropan-2-yl)phenyl]-1H-pyrazol-5-yl}-3-(2,3-dichlorophenyl)urea], in test [3] (setting [4]), the IC50 stood at 0.01 µM.
For the compound `CCOC(=O)c1ccc(-n2nc(C(F)(F)F)cc2NC(=O)Nc2ccc(Cl)cc2)cc1` [Example 338, ethyl 4-{5-[3-(4 chlorophenyl)ureido]-3-(trifluoromethyl)-1H-pyrazol-1-yl}benzoate], the “% @ concentration, uM” value in test [3] (Table 5, @ 2 uM) came out at 7% @ 2.
On to `O=C(Nc1ccc(Cl)cc1)Nc1cc(-c2ccccc2)nn1-c1ccc(CO)cc1` [Example 331, 1-(4-chlorophenyl)-3-{1-[4-(hydroxymethyl)phenyl]-3-phenyl-1H-pyrazol-5-yl}-urea], for which the “% @ concentration, uM” value in test [3] (Table 5, @ 10 uM) was determined as 71% @ 10.
On to `CC(C)(C)c1cc(NC(=O)Nc2cccc3ccccc23)n(-c2cccc(CNC(=O)N3CCOCC3)c2)n1` [Example 382, 1-(3-t-butyl-1-{3-[(morpholine-4-carboxamido)methyl]phenyl}-1H-pyrazol-5-yl)-3-(naphthalen-1-yl)urea], for which the IC50 in test [3] (setting [4]) was determined as 0.88 µM.
Take `CC(C)(C)c1cc(NC(=O)Nc2cccc(Cl)c2Cl)n(-c2cccc(Cn3c(=O)[nH]n(-c4ccccc4)c3=O)c2)n1` [Example 396, 1-(3-t-butyl-1-{3-[(3,5-dioxo-1-phenyl-1,2,4-triazolidin-4-yl)methyl]phenyl}-1H-pyrazol-5-yl)-3-(2,3-dichlorophenyl)urea]: the “% @ concentration, uM” value in test [3] (Table 5, @ 0.1 uM) stood at 3%; in test [3] (Table 5, @ 1 uM), 56%.
On to `CC(C)(C)c1cc(NC(=O)Nc2cccc(Cl)c2Cl)n(-c2cccc(C(N)=O)c2)n1` [Example 289, 1-[3-t-butyl-1-(3-carbamoylphenyl)-1H-pyrazol-5-yl]-3-(2,3-dichlorophenyl)urea], for which the IC50 in test [3] (Table 3, rates at […] to 2 h, read-out: IC50) came out at 1.3 µM.
As for `CC(C)(C)c1cc(NC(=O)Nc2ccc(Cl)cc2)n(-c2cccc(CNC(=O)N3CCCC3)c2)n1` [Example 387, 1-(3-r-butyl-1-{3-[(pyrrolidine-1-carboxamido)methyl]phenyl}-1H-pyrazol-5-yl)-3-(4-chlorophenyl)urea], the IC50 in test [3] (setting [4]) was found to be 4.45 µM.
The same measure, in the same setting: then `O=C(Nc1cccc(Cl)c1)Nc1cc(-c2ccccc2)nn1-c1cccc(CO)c1` [Example 352, 1-{3-phenyl-1-[3-(hydroxymethyl)phenyl]-1H-pyrazol-5-yl}-3-(3-chlorophenyl)urea], with 0.043 µM.
Consider `NC(=O)Cc1cccc(-n2nc(-c3ccccc3)cc2NC(=O)Nc2cccc(Cl)c2Cl)c1` [Example 447, 1-(1-(3-(2-amino-2-oxoethyl)phenyl)-3-phenyl-1H-pyrazol-5-yl)-3-(2,3-dichlorophenyl)urea], for which the IC50 in test [2] was found to be 0.011 µM.
`O=C(O)CCc1cccc(-n2nc(C(F)(F)F)cc2NC(=O)Nc2ccc(Cl)cc2)c1` [Example 427, 3-(3-(5-(3-(4 chlorophenyl)ureido)-3-(trifluoromethyl)-1H-pyrazol-1-yl)phenyl)propanoic acid]: the IC50 in test [3] (setting [4]) turned out to be 0.819 µM.
Regarding `CCOC(=O)c1ccc(-n2nc(C(C)(C)C)cc2NC(=O)Nc2cccc(F)c2F)cc1` [Example 314, ethyl 4-{3-t-butyl-5-[3-(2,3-difluorophenyl)ureido]-1H-pyrazol-1-yl}benzoate], the IC50 in test [3] (setting [4]) was determined as 0.25 µM.

Values taken from patent US20090312349A1, “ANTI-INFLAMMATORY MEDICAMENTS” (priority 2004, published 2009).
